Experimental data: patent US10604784B2, “Method and device for antibiotic susceptibility testing based on fluctuations of electrical resistance in a microchannel” (TRUSTEES OF BOSTON UNIVERSITY, priority 2016, dated 2020)

Key:
Type in all cases: cell-based
S. epidermidis = assay: Mean resistance based susceptibility test in the microchannel (bacterial growth); settings: broth/Vancomycin mixture, vancomycin 4 μg/ml, t=0 to 4 hrs
Method: After the bacteria are trapped, for the Mean Resistance based Susceptibility Test 410, at 412, the baseline mean (average or time-averaged measured resistance through the channel) resistance can be measured for a predefined period of time. The baseline mean can be determined as a function (e.g., the average or time-average) of the measured resistance through the channel for two or more points in time. After the baseline mean resistance is determined, at 414, the antibiotic is added to the solution, either via one of the reservoirs 110 or directly to the microchannel 120 and, at 416, the solution containing the bacteria and the antibiotic is allowed to incubate for a predefined period of time (e.g., 1-3 hours, although shorter or longer periods can be used). After the expiration of a predefined period of time, at 418, the mean resistance is determined (e.g., as a function of the measured resistance through the channel for two or more points in time) and, at 420, the mean resistance is compared to the baseline mean resistance. […]
In the experiment shown in FIGS. 14, 15 and 16, the susceptibility of S. epidermidis to Vancomycin was tested using the mean resistance based approach shown in the flowchart in FIG. 4. As discussed above, S. epidermidis is non-motile and readily settles in the microchannel. […]

[1] = test system: susceptible E. coli strain; assay: Electrical fluctuation based susceptibility test of immobilized bacteria in human urine/broth, susceptible strain; settings: about 50 bacteria, urine/broth/antibiotic mixture, antibiotic concentration above MIC, FIG. 13A/13C
Method: (§1) After the bacteria are trapped, for the Electrical Fluctuation based Susceptibility Test 430, at 432, the system measures the fluctuations of the electrical signals (e.g., voltage or current) to determine a baseline RMS signal level (e.g., the RMS level determined as function of the measured signal fluctuations). Next, at 434, the antibiotic is added to the solution, either via one of the reservoirs 110 or directly to the microchannel 120. Next, at 436, the (RMS) fluctuations of the electrical signal (e.g., voltage or current) are measured again and an RMS level can be determined as a function of the measured signal fluctuations, and, at 440, the RMS level of the fluctuations of the electrical signal can be compared to the baseline RMS signal level. If the RMS level of the fluctuations of the electrical signal is greater than the baseline signal RMS level, then the bacteria can be considered resistant to the antibiotic at 442. If the RMS level of the fluctuations of the electrical signal is not greater than the baseline RMS signal level, the bacteria can be considered susceptible to attack by the antibiotic at 444.
(§2) FIGS. 13A, 13B, and 13C show the results of antibiotic susceptibility studies in human urine. In this example, two strains of E. coli are used, with one being resistant to the administered antibiotic, nalidixic acid. […]

resistant E. coli strain = assay: Electrical fluctuation based susceptibility test of immobilized bacteria in human urine/broth, resistant strain; settings: about 50 bacteria, urine/broth/antibiotic mixture, antibiotic concentration above MIC, FIG. 13B/13C
Method: as §1, §2

Row | Structure (SMILES) | population size of bacteria in the antibiotic solution (S. epidermidis) | mean resistance value (change over time) (S. epidermidis; FIG. 16) | voltage fluctuations (RMS amplitude) over time after antibiotic is administered [1] | voltage fluctuations (RMS amplitude) over time after antibiotic is administered (resistant E. coli strain)
1 | CN[C@H](CC(C)C)C(=O)N[C@H]1C(=O)N[C@@H](CC(N)=O)C(=O)N[C@H]2C(=O)N[C@H]3C(=O)N[C@H](C(=O)N[C@H](C(=O)O)c4cc(O)cc(O)c4-c4cc3ccc4O)[C@H](O)c3ccc(c(Cl)c3)Oc3cc2cc(c3O[C@@H]2O[C@H](CO)[C@@H](O)[C@H](O)[C@H]2O[C@H]2C[C@](C)(N)[C@H](O)[C@H](C)O2)Oc2ccc(cc2Cl)[C@H]1O [Vancomycin] | the population size stays the same | does not change noticeably |  | 
2 | CCn1cc(C(=O)O)c(=O)c2ccc(C)nc21 [nalidixic acid] |  |  | decay rather quickly | do not show significant changes over time
